# From patent EP2711366A1, “Cationic triphenylamine derivatives activable by visible and Infra Red light for inducing and imaging apoptosis in cancer cells” (Institut Curie, priority 2012, dated 2014)
# Key:
# [1] = Dark toxicity (MTT assay, without illumination); assay type: cell-based; details: human; MCF-7 cells, tested in dark; read-out: TC50 (toxicity concentration 50%), dark toxicity
# Description: (§1) Different experiments were conducted and described below: • MCF7 cells were treated with 2µM of TP2Py or TP3Bzim and exposed to illumination (Fig.9A); • HeLa cells were treated with 2µM of TP2Py or TP3Bzim and exposed to illumination (Fig.9B); • MCF7 cells were treated with TP2Py, 40 min illumination (black circles) or without illumination (white circles) (Fig.9C) • HeLa cells were treated with TP2Py [30 min illumination (black circles) or without illumination (white circles)] or TP3Bzim [15 min illumination (black triangles) or without illumination (white triangles)]
# (§2) For each experiment, the source of excitation was a Mercury lamp (130W; 380-600nm) with an excitation filter centered at 452nm (± 45 nm), irradiance, 60mW/cm^2.
# (§3) First, the experiment was calibrated by determining the time of illumination exposure which leads to the toxicity 50%, for a given concentration of TPA (2 µM) and for an irradiance of 60mW/cm^2. […] This characteristic time was then used for the plots shown in Fig. 9C and 9D which represent the cell viability as a function of TPA concentration (in HeLa and MCF-7 cells, respectively).
# [2] = system: living MCF-7 cells; assay: One-photon confocal fluorescence microscopy, photo-induced nuclear translocation and membrane blebbing; assay type: cell-based
# Description: One-photon epifluorescence and confocal images were obtained using a SP2 confocal microscope (Leica MicroSystem) equipped with an incubation chamber (37°C, CO2 5%). Excitation and emission filters for epifluorescence were 450-490 nm and 515-700 nm, respectively. A continuous laser line (458 nm) was used for excitation in the confocal mode.
# The photo-induced nuclear translocation and membrane blebbing were next assessed using confocal fluorescence microscopy [λexc = 458 nm; emission slit settings: 560-720nm and 530-690nm for TP2Py and TP3Bzim, respectively] under experimental conditions similar to those described in experiment 1 for epifluorescence experiments. The corresponding transmission images illustrating the concomitant membrane blebbing are shown below the confocal fluorescence images. Living MCF7 cells were incubated with 2µM TP3Bzim or TP2Py for 2 hours before observation. As shown in Fig. 5A (TP2Py) and in Fig. 5B (TP3BZim), the results obtained with confocal imaging were similar to those obtained with epifluorescence imaging (experiment 1), with however, some discrepancies in the time courses of event appearance, most likely due to the power of the excitation source which is different between epifluorescence and confocal experiments (see below). […] Based on both criteria (re-localization of the fluorescence signal and the formation of blebs), the deduced fluences were 22 and 40 J/cm^2 for TP2Py and TP3Bzim, respectively. […]
# The TP2Py compound at a concentration of 2 µM was first incubated with living MCF-7 cells for 2 hours and then observed with confocal microscope with varying illumination power of the laser source [λ=458 nm; emission slit setting: 560-720 nm]. […] For each condition, the fluorescence intensity in ROIs corresponding to the nucleus was plotted as a function of time (the initial time value, t = 0, represents the first observation) (FIG.7C). Using integration time based on tmax values, light dose values, determined from experiments performed at irradiance of 5.6 or 30 mW/cm^2, were consistent (27.6 and 27 J/cm^2 respectively). These values are in accordance with the above-mentioned value for TP2Py (fluence, 22 J/cm^2 in Fig. 5).
# Living MCF-7 cells were treated with varying concentrations of TP2Py for two hours (2µM; 0.2µM and 0.02µM) and observed with a confocal microscope [λexc = 458nm; irradiance 30mW/cm^2, emission slit setting: 560-720nm.] (FIG 8A: 2µM; FIG 8B: 0.2µM; FIGBC: 0.02µM).
# [3] = system: HeLa cells; assay: Cytophototoxicity by MTT assay under illumination; assay type: cell-based; details: irradiance 60mW/cm^2
# Description: as §1, §2, §3
# [4] = system: ROS (reactive oxygen species) in MCF7 cells; assay: Fluorescence detection of ROS generation with H2DCF-DA probe, flow cytometry; assay type: cell-based; details: 2µM, 2 hours
# Description: CF-7 cells were plated in 12-well plates (2.10^5 cells/well) and incubated with 2µM of TP2Py for 2h at 37°C. After a time illumination of 30 min [Irradiance, 40mW/cm^2. The source of excitation was a Mercury lamp (130 W; 380-600 nm) with an excitation filter centered at 452 nm (± 45 nm)], cells were gently scraped, individualized in PBS-EDTA (10 mM) and stained with 10µM of […] (H2DCF-DA) (Molecular Probe, USA) for 45 min. Cells were then washed in ice-cold HEPES buffer before analysis. Fluorescence signals of H2DCF-DA and TP2Py were measured by FACSCalibur flow cytometer using FL1 and FL2 detectors, respectively.
# Different experiments are summarized below: • Control MCF7 cells were treated with DMSO (1%) (Fig.13A) without light exposure; • MCF7 cells were plated and treated with H2DCF-DA and 2µM TP2Py for 2 hours without light exposure (Fig.13B); • MCF7 cells were plated and treated with H2DCF-DA and 2µM TP2Py for 2 hours after a time illumination of 30 min (Fig.13C)
# The horizontal (FL1-H) and vertical (FL2-H) axes correspond to fluorescence signals of H2DCF-DA and TP2Py, respectively.
# [5] = system: HeLa cells
# Description: as §1, §2, §3
# [6] = system: DNA; details: cited from earlier work
# [7] = 2µM, 2 hours, λexc 458 nm, irradiance 30 mW/cm^2
smiles,measurement,setting,value
C[n+]1ccc(/C=C/c2ccc(N(c3ccccc3)c3ccc(/C=C/c4cc[n+](C)cc4)cc3)cc2)cc1 [TP2Py],CC50,[1],> 30 µM
same,time at which the first blebs appeared,"[2]; 20nM, constant light excitation, transmission mode",75 min
same,light dose,"[2]; 0.2µM, irradiance 30 mW/cm^2",306 J/cm^2
same,tmax of nuclear re-localization,"[2]; 0.2µM, irradiance 30 mW/cm^2",> 2 h
same,deduced fluence (re-localization of the fluorescence signal and formation of blebs),"[2]; 2µM, 2 hours, confocal, λexc 458 nm (Fig. 5)",22 J/cm^2
same,lag period before increase of fluorescence emission intensity in the nucleus,[2]; [7],2 to 4 min
same,time of maximum fluorescence emission intensity in the nucleus,[2]; [7],8 to 10 min
same,light dose (integration time based on tmax),"[2]; 2 µM, irradiance 5.6 mW/cm^2",27.6 J/cm^2
same,tstart of nuclear re-localization,"[2]; 2 µM, irradiance 5.6 mW/cm^2",50 min
same,light dose (integration time based on tmax),"[2]; 2 µM, irradiance 30 mW/cm^2",27 J/cm^2
same,tmax of nuclear re-localization,"[2]; 2 µM, irradiance 30 mW/cm^2",0.25 h
same,tstart of nuclear re-localization,"[2]; 2 µM, irradiance 30 mW/cm^2",4 min
same,illumination time required for the same TC50 under illumination,"[3]; Mercury lamp, filter 452nm",30 min
same,corresponding light dose,[3],108 J/cm^2
same,"HMFI population (H2DCF-DA positive, TP2Py positive)","[4]; 30 min illumination, 40mW/cm^2",15.4%
same,"HMFI population (H2DCF-DA positive, TP2Py positive)",[4]; without light exposure,4.9%
same,dark toxicity (concentration below which negligible),[5],≥ 50 µM
same,"maximum of emission in vitro, DNA-bound",[6]; Allains et al. 2007,634 nm
same,"λmax,emission",[6]; b156 attributes 634 nm to DNA-bound TP2Py in vitro (Allains et al. 2007),634 nm
